Reference: paper PMC10383864, “Novel 2-Sulfanylquinazolin-4(3H)-one Derivatives as Multi-Kinase Inhibitors and Apoptosis Inducers: A Synthesis, Biological Evaluation, and Molecular Docking Study” (Molecules, 2023)

Experiments:
[1] = tested on: HepG2 cells; assay: Annexin V-FITC/PI apoptosis assay; type: cell-based, human; conditions: HepG2, 7.1 µM, 24 h
Method: (§1) In order to investigate apoptosis, the most cytotoxic compound in anti-proliferative assay 5d was further exposed to […] using the standard Annexin V/PI double staining procedure.
The apoptotic and necrotic effect of compound 5d was investigated using flow cytometry, as described in [43]. The HepG2 cells were treated with 7.1 µM of compound 5d for 24 h. After treatment, the cells were collected by trypsinization, centrifuged, and washed two times with PBS. A suspension of cells in 500 μL binding buffer was double stained with 5 μL Annexin V-FITC and 5 μL PI in the dark at room temperature for 15 min. The stained cells were measured using an Epics XL-MCL™ Flow Cytometer (Beckman Coulter), and the data were analyzed using Flowing software (version 2.5.1, Turku Centre for Biotechnology, Turku, Finland).

[2] = tested on: WI38 cells; assay: MTT cytotoxicity assay, normal human cell line; type: cell-based; conditions: 24 h treatment, mean ± SD of three experiments, read-out: In Vitro Cytotoxicity IC50 WI38
Method: (§2) In addition, the safety profile of the 2-sulfanylquinazolin-4(3H)-one derivatives was evaluated against normal human cells (WI38) […]. The standard MTT (3-(4,5-dimethylthiazol-2-yl)-2,5 diphenyl tetrazolium bromide) colorimetric assay protocol was used, as described by Mosmann. […] The results were expressed as growth inhibitory concentration (IC50) values.
(§3) The cell lines were obtained from ATCC (American Type Culture Collection). […] After incubation, the cells were treated with different concentrations of the synthesized compounds and incubated for 24 h. Afterward, the cells were washed with PBS, and 20 µL of MTT solution at 5 mg/mL was added, all incubated for 4 h. The MTT solution was discarded, and 100 µL of dimethyl sulfoxide (DMSO) was added per well. […] The relative cell viability in percentage was calculated as (A570 of treated cells/A570 of untreated cells) × 100.

[3] = MTT cytotoxicity assay, normal human cell line; type: cell-based; conditions: human, WI38 cells (normal human cells), 24 h treatment, mean ± SD of three experiments, read-out: In Vitro Cytotoxicity IC50 WI38
Method: as §2, §3

[4] = tested on: HepG2 cells; assay: Flow cytometry analysis of cell cycle; type: cell-based, human; conditions: HepG2, 7.1 µM, 24 h
Method: as §1
Flow cytometry analysis was conducted to assess the effect of compound 5d on the cell cycle distribution in HepG2 cells. The Flow Cytometry Kit for cell cycle analysis (ab139418_Propidium Iodide Flow Cytometry Kit/BD) was used in this test. First, the HepG2 cells were seeded in six-well plates at a density of 2 × 10^5 cells/well and incubated for 24 h. In the second step, 10% FBS was added, and the cells were incubated at 37 °C and 5% CO2. The medium was replaced with (DMSO 1% v/v) containing 7.1 µM of compound 5d and then incubated for 24 h. After that, the cells were fixed with 70% ethanol at 4 °C for 12 h and washed with cold PBS, and then rinsed with PBS. In the last step, 100 μL of RNase A was added to each well and incubated at 37 °C for 30 min and stained with 400 μL PI in the dark at room temperature for an additional 30 min. The stained cells were measured using an Epics XL-MCL™ Flow Cytometer (Beckman Coulter), and the data were analyzed using Flowing software (version 2.5.1, Turku Centre for Biotechnology, Turku, Finland).

[5] = tested on: MDA-MB-231 cells; assay: MTT cytotoxicity assay; type: cell-based, human; conditions: Homo sapiens, MDA-MB-231, 24 h, MDA-MB-231, MTT, 24 h treatment, mean ± SD of three experiments; read-out: In Vitro Cytotoxicity IC50 MDA-MB-231
Method: as §2, §3

[6] = tested on: HeLa cells; assay: MTT cytotoxicity assay; type: cell-based, human; conditions: Homo sapiens, 24 h, 24 h treatment, mean ± SD of three experiments, read-out: In Vitro Cytotoxicity IC50 HeLa
Method: as §2, §3

[7] = tested on: MCF-7 cells; assay: MTT cytotoxicity assay; type: cell-based, human; conditions: Homo sapiens, MCF7, 24 h, MCF-7, MTT, 24 h treatment, mean ± SD of three experiments; read-out: In Vitro Cytotoxicity IC50 MCF-7
Method: as §2, §3

[8] = tested on: HepG2 cells; assay: MTT cytotoxicity assay; type: cell-based, human; conditions: Homo sapiens, HepG2, 24 h, 24 h treatment, mean ± SD of three experiments, read-out: In Vitro Cytotoxicity IC50 HepG2
Method: as §2, §3

[9] = molecular target: T1, EGFR (Homo sapiens, UniProt P00533); assay: Kinase inhibition, ELISA kit; type: biochemical; conditions: mean ± SD of three experiments
T1 construct: purchased
T1 sequence (P00533 25-1210): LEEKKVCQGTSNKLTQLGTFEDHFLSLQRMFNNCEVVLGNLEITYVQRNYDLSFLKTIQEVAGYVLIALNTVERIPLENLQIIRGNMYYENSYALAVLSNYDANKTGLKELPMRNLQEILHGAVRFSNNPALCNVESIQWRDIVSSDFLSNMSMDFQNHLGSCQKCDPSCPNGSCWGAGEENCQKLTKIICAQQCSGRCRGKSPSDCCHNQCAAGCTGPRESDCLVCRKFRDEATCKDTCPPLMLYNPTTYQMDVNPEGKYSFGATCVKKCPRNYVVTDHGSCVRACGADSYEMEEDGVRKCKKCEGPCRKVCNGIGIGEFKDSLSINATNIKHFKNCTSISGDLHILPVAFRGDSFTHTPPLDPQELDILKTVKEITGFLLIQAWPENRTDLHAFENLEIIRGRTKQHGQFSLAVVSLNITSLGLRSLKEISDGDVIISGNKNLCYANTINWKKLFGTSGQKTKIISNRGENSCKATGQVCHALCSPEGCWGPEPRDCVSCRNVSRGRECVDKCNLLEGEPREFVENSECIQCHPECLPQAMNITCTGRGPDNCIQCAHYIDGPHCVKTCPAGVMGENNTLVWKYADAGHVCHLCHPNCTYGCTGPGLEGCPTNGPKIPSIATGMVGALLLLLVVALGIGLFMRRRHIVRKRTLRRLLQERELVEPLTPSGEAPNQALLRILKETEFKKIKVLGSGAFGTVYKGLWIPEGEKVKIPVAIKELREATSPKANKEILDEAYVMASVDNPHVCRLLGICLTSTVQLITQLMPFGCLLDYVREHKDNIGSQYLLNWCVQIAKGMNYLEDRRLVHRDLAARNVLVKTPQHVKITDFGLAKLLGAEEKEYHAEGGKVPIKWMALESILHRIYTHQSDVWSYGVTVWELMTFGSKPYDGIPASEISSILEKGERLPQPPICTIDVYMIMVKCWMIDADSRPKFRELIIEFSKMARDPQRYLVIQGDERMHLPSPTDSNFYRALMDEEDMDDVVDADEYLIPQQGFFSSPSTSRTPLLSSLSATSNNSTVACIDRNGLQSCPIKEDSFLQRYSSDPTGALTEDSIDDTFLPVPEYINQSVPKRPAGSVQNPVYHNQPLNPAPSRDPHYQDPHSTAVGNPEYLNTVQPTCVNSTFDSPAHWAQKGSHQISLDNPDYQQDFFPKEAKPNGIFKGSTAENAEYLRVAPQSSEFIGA
Method: The corresponding kinase inhibitory kit assays were used, and the results are expressed as IC50 values (µM), as presented in Table 2. […] Afterward, the plate was incubated at room temperature for 2.5 h and then washed with PBS. A total of 100 μL of the prepared biotin antibody was added and incubated at room temperature for an additional 1 h, and then 100 μL of streptavidin solution was added and incubated at room temperature for another 45 min. After washing, 100 μL of TMB substrate reagent was added and incubated for 30 min at room temperature. Finally, about 50 μL of the stop solution was added and then read at 450 nm immediately. A standard curve was drawn, with concentrations on the X-axis and absorbance on the Y-axis.

[10] = molecular target: T2, HER2 (Homo sapiens, UniProt P04626); assay: Kinase inhibition, ELISA kit; type: biochemical; conditions: mean ± SD of three experiments
T2 construct: purchased
T2 sequence (P04626 23-1255): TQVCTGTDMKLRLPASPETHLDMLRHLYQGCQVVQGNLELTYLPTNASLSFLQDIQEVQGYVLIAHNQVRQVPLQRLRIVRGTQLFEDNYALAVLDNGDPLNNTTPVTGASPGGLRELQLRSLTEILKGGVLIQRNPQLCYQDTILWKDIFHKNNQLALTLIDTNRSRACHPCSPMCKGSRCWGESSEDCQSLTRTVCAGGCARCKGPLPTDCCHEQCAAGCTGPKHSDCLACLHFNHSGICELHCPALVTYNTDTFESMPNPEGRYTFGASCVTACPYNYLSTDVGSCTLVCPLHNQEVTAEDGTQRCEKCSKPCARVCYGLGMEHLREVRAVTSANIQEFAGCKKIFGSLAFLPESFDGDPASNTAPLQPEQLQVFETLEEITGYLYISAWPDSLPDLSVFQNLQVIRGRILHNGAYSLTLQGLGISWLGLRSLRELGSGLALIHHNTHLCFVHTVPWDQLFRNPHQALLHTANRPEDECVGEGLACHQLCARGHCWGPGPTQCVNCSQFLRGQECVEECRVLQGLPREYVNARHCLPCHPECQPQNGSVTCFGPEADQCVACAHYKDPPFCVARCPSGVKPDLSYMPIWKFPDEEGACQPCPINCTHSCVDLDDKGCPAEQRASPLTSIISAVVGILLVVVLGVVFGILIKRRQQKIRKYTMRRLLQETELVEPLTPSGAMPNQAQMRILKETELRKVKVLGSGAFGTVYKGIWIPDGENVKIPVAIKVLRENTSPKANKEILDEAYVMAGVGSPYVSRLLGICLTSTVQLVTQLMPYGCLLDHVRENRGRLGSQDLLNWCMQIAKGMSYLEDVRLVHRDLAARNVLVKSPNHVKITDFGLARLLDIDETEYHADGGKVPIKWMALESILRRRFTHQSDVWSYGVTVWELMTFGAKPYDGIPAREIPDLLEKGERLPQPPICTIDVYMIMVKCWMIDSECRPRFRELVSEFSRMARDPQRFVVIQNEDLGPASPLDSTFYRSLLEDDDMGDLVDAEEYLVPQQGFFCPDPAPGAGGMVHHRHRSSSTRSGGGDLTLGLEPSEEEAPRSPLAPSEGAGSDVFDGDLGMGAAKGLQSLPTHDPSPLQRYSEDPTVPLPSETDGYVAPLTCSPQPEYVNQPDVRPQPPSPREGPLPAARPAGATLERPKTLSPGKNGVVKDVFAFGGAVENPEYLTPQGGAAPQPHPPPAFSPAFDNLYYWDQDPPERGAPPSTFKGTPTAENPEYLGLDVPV
Method: (§4) The corresponding kinase inhibitory kit assays were used, and the results are expressed as IC50 values (µM), as presented in Table 2.
(§5) Afterward, the plate was incubated at room temperature for 2.5 h and then washed with PBS. A total of 100 μL of the prepared biotin antibody was added and incubated at room temperature for an additional 1 h, and then 100 μL of streptavidin solution was added and incubated at room temperature for another 45 min. After washing, 100 μL of TMB substrate reagent was added and incubated for 30 min at room temperature. Finally, about 50 μL of the stop solution was added and then read at 450 nm immediately. A standard curve was drawn, with concentrations on the X-axis and absorbance on the Y-axis.

[11] = molecular target: T3, CDK2 (Homo sapiens, UniProt P24941); assay: Kinase inhibition, ELISA kit; type: biochemical; conditions: mean ± SD of three experiments
T3 construct: purchased
Method: as §4, §5

[12] = molecular target: T4, VEGFR2 (Homo sapiens, UniProt P35968); assay: Kinase inhibition, ELISA kit; type: biochemical; conditions: mean ± SD of three experiments
T4 construct: purchased
T4 sequence (P35968 20-1356): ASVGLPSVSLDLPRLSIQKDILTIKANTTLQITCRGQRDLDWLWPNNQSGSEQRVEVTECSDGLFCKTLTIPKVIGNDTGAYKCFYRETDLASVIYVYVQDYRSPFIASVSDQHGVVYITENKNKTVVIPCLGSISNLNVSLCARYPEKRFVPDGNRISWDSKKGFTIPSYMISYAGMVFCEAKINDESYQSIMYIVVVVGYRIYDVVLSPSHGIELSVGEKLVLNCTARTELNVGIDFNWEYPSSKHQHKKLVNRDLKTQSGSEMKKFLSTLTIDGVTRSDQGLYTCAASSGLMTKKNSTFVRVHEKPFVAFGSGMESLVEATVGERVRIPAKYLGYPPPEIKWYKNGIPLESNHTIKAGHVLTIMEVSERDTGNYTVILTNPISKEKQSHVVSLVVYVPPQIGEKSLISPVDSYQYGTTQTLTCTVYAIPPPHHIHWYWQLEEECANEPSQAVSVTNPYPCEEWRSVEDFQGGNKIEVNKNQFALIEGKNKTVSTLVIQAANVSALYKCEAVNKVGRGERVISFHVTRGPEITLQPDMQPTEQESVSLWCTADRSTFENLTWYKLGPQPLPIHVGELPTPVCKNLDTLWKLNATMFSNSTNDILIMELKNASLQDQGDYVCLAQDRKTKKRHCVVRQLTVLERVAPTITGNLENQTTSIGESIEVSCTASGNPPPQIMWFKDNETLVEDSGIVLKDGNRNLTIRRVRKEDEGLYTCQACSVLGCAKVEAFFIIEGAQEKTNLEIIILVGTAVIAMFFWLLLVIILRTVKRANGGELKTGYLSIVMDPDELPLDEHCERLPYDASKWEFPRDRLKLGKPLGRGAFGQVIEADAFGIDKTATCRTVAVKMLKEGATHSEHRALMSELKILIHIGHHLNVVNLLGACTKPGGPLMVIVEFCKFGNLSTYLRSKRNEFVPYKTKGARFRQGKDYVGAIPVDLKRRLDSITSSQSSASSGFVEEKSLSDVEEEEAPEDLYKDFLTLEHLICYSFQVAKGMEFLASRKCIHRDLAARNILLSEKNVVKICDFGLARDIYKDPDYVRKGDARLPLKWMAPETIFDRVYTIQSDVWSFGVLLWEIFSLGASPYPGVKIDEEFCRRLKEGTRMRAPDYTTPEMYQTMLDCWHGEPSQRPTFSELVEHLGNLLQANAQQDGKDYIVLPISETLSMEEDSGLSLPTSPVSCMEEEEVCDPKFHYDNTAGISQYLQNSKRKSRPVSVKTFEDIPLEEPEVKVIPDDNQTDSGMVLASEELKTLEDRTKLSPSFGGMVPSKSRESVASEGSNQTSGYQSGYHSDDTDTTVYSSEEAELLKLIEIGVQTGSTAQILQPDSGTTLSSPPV
Method: . The corresponding kinase inhibitory kit assays were used, and the results are expressed as IC50 values (µM), as presented in Table 2. […]. The inhibitory activity of compound 5d against CDK2, HER2, EGFR, and VEGFR2 was evaluated using the corresponding human kinases ELISA kit (Enzyme-Linked Immunosorbent Assay). In brief, specific antibodies for each kinase were seeded on a 96-well plate, and 100 μL of the standard solution or compound 5d was added. Afterward, the plate was incubated at room temperature for 2.5 h and then washed with PBS. A total of 100 μL of the prepared biotin antibody was added and incubated at room temperature for an additional 1 h, and then 100 μL of streptavidin solution was added and incubated at room temperature for another 45 min. After washing, 100 μL of TMB substrate reagent was added and incubated for 30 min at room temperature. Finally, about 50 μL of the stop solution was added and then read at 450 nm immediately. A standard curve was drawn, with concentrations on the X-axis and absorbance on the Y-axis.

[13] = tested on: HepG2, MCF-7, MDA-231, and HeLa; assay: MTT cytotoxicity assay, range over the tested cancer cell lines; type: cell-based; conditions: Homo sapiens, range over HepG2, MCF-7, MDA-231 and HeLa, read-out: IC50 range against all tested cancer cell lines
Method: as §2, §3

[14] = tested on: caspase-9; assay: RT-PCR of apoptosis-related genes in HepG2 cells; type: cell-based, human; conditions: HepG2 cells treated with 5d, control = 1, increase
Method: (§6) RT-PCR reactions were carried out to investigate the relative gene expression of apoptosis-related genes, including the proapoptotic genes Bax, caspases 3 and 9, and the anti-apoptotic Bcl2 gene. […] Therefore, it can be concluded that the induction of apoptosis in HepG2 cells upon treatment with 5d is associated with the upregulation of proapoptotic genes and the downregulation of anti-apoptotic genes.
(§7) The level of apoptotic markers caspase-3, caspase-9, Bax, and Bcl-2 was measured using BIORAD iScript TM One-Step RT-PCR kit with SYBR® Green. According to the manufacturer’s instructions, the kit was used in three subsequent steps.
(§8) mRNA isolation of up to 1 × 10^7 cells was carried out using an RNeasy extraction kit. Cells were disrupted in RNeasy Lysis Buffer (RLT buffer) and homogenized. Ethanol was then added to make a lysate and provoke the selective binding of RNA to the RNeasy membrane. The sample was then applied to the RNeasy mini spin column, where total RNA binds to the membrane while contaminants pass through. The RNA was then eluted in RNase-free water.
(§9) All the following reagents were mixed to make about 50 μL mixture: 2X SYBR® Green RT-PCR reaction mixture (25 μL), forward primer (10 μM; 1.5 μL), reverse primer (10 μM; 1.5 μL), nuclease-free H2O (11 μL), RNA template (1 pg to 100 ng total RNA; 10 μL) and iScript reverse transcriptase for One-Step RT-PCR (1 μL).
(§10) The whole reaction mixture was incubated in a real-time thermal detection system (Rotorgene) as follows: cDNA synthesis (10 min at 50 °C), iScript reverse transcriptase inactivation (5 min at 95 °C), PCR cycling and detection (30–45 cycles):10 s at 95 °C and 30 s at 55 °C to 60 °C (data collection step) and melt curve analysis: 1 min at 95 °C, 1 min at 55 °C and 10 s at 55 °C–95 °C (80 cycles, increasing each by 0.5 °C each cycle).

[15] = tested on: caspase-3; assay: RT-PCR of apoptosis-related genes in HepG2 cells; type: cell-based, human; conditions: HepG2 cells treated with 5d, control = 1, increase
Method: as §6, §7, §8, §9, §10

[16] = tested on: Bax; assay: RT-PCR of apoptosis-related genes in HepG2 cells; type: cell-based, human; conditions: HepG2 cells treated with 5d, control = 1, increase
Method: as §6, §7, §8, §9, §10

[17] = tested on: Bcl2; assay: RT-PCR of apoptosis-related genes in HepG2 cells; type: cell-based, human; conditions: HepG2 cells treated with 5d, control = 1, downregulated
Method: as §6, §7, §8, §9, §10

SMILES | IC50 at 24 h [3] [µM] | IC50 [5] [µM] | IC50 [6] [µM] | IC50 [7] [µM] | IC50 [8] [µM] | IC50 [13] [µM] | also measured
Cc1ccc(-n2c(SCc3ccc(Cl)cc3)nc3ccc(F)cc3c2=O)cc1 [Compound 5d, 2-(4-Chloro-benzylsulfanyl)-6-fluoro-3-(4-methylArenyl)-3H-quinazolin-4-one] | 40.9 | 1.94 ± 0.1 | 6.38 ± 0.4 | 2.48 ± 0.2 | 7.1 ± 0.6 | 1.94 to 7.1 | necrosis, % of cell population ([1]; control 1.45%): 3.08%; total apoptosis, % of cell population ([1]; control 2.28%): 28.04%; IC50 [2]: 64.3 ± 3.5 µM; phase of cell cycle arrest [4]: S phase; drop in the cell population at the G0-G1 phase ([4]; in comparison to the control): 4.5%; drop in the cell population at the G2/M phase ([4]; in comparison to the control): 4.73%; increase in the cell population in the S phase ([4]; in comparison to the control): 9.23%; IC50 [9]: 0.22 ± 0.013 µM; IC50 [10]: 0.184 ± 0.008 µM; IC50 [11]: 2.1 ± 0.126 µM; IC50 [12]: 0.336 ± 0.009 µM; gene expression of caspase-9, fold change [14]: two; gene expression of caspase-3, fold change [15]: three; gene expression of Bax, fold change [16]: three; expression of anti-apoptotic gene Bcl2, fold change [17]: 0.4 fold
Cc1ccc(-n2c(SCc3ccc(F)cc3)nc3ccc(F)cc3c2=O)cc1 [Compound 5e, 2-(4-Fluoro-benzylsulfanyl)-6-fluoro-3-(4-methylArenyl)-3H-quinazolin-4-one] | 55.8 ± 3.2 | 19.2 ± 1.5 | 38.2 ± 2.3 | 25.2 ± 1.9 | 29.5 ± 2.2 | 19.2 to 38.2 | melting point: 170 to 172 °C
COc1cccc2c1C(=O)c1c(O)c3c(c(O)c1C2=O)C[C@@](O)(C(=O)CO)C[C@@H]3O[C@H]1C[C@H](N)[C@H](O)[C@H](C)O1 [Dox., doxorubicin, reference compound] |  |  |  |  | 4.5 ± 0.2 |  | 
CCN(CC)CCNC(=O)c1c(C)[nH]c(/C=C2\C(=O)Nc3ccc(F)cc32)c1C [Sunitinib, sunitinib, reference compound] | 77.3 ± 4.3 | 19 ± 1.5 | 21.8 ± 1.7 | 24.8 ± 1.8 | 11.3 ± 1 |  | 
